Data from patent US12653190B2, “Heteroaryl-triazole compounds as pesticides” (Bayer Aktiengesellschaft, priority 2020, dated 2026).

Key:
Assay type in all cases: in vivo
[1] = system: adult engorged female ticks (Rhipicephalus microplus); test: Rhipicephalus (Boophilus) microplus injection test; details: 168 h, egg deposition monitored after 7 days, read-out: efficacy (infertile eggs); for pest or weed control at 4 µg/tick: 4 μg/tick injected; for pest or weed control at 20 µg/tick: 20 μg/tick injected
Method in brief: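 Five adult engorged female ticks each injected with 1 μL of DMSO compound solution into the abdomen, then kept in a climate chamber. Fertile egg deposition assessed after 7 days, with hatching followed to about 42 days; efficacy 100% means all eggs infertile, 0% all fertile.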

[2] = system: larvae of the banded cucumber beetle (Diabrotica balteata); test: Diabrotica balteata spray test; details: 168 h, after 7 days, wheat seeds, read-out: efficacy (seedling growth); for pest or weed control at 160 µg/disc, 500 g/ha: 500 g/ha (=160 μg/well); for pest or weed control at 32 µg/disc, 100 g/ha: 100 g/ha (=32 μg/well)
Method in brief: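 Efficacy is seedling survival after 7 days, where 0% means no seedlings grew and 100% means growth equal to untreated, uninfested controls. Wheat seedlings, germinated on agar for 1 day, were sprayed with the aqueous emulsifier dilution (acetone/DMF solvent) and then exposed to 10–20 banded cucumber beetle larvae.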

[3] = system: larvae of the southern green stink bug (Nezara viridula); test: Nezara viridula spray test; details: 96 h, after 4 days, barley plants
Method in brief: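 Percent mortality of southern green stink bug larvae was recorded at day 4, with 100% meaning all dead. The larvae were placed on barley sprayed with the test solution. That solution was prepared from acetone/dimethylformamide concentrate diluted in emulsifier-containing water (1000 ppm).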

[4] = system: brown planthopper (Nilaparvata lugens); test: Nilaparvata lugens spray test; details: 96 h, after 4 days, rice plants
Experimental: Nilaparvata lugens—Spray Test • Solvent: 78.0 parts by weight of acetone • 1.5 parts by weight of dimethylformamide • Emulsifier: alkylarylpolyglycol ether
To produce a suitable preparation of active compound, 1 part by weight of active compound is mixed with the stated amount of solvents and is diluted with water, containing an emulsifier concentration of 1000 ppm, to the desired concentration. Further test concentrations are prepared by dilution with emulsifier containing water.
Rice plants (Oryza sativa) are sprayed with a preparation of the active ingredient of the desired concentration and the plants are infested with the brown planthopper (Nilaparvata lugens).
After 4 days mortality in % is determined. 100% means all planthoppers have been killed and 0% means none of the planthoppers have been killed.

[5] = system: green peach aphid (Myzus persicae); test: Myzus persicae spray test; details: foliar, 120 h, after 5 days, Chinese cabbage leaf disks
Method in brief: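 Chinese cabbage leaf disks infested with all aphid instars were sprayed with compound in acetone/DMF, diluted in water with 1000 ppm alkylarylpolyglycol ether emulsifier. Mortality (%) scored after 5 days, 100% meaning all aphids killed.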

[6] = system: fall armyworm larvae (Spodoptera frugiperda); test: Spodoptera frugiperda spray test; details: in Zea mays, 168 h
Method in brief: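 Maize leaf sections were sprayed with compound in acetone/dimethylformamide diluted in water with 1000 ppm emulsifier, dried, then infested with larvae. Mortality in % was scored after 7 days, 100% meaning all caterpillars killed.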

[7] = system: Rhipicephalus (Boophilus) microplus larvae (strain Parkhurst, resistant against synthetic pyrethroids); test: Rhipicephalus (Boophilus) microplus in-vitro contact test, larval cattle tick; details: 5 μg/cm^2 (=500 g/ha), after 48 hours, read-out: efficacy (larvae dead or moribund)
Method in brief: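 Acetone solutions coated onto glass tube walls, 900 ppm giving 5 μg/cm^2; 20–50 larvae per tube after solvent evaporation. Incubated 48 h at 27 °C, 85% relative humidity; efficacy from negative geotaxis, 100% meaning all larvae dead or moribund.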

[8] = system: adult unfed cat fleas (Ctenocephalides felis); test: Ctenocephalides felis oral test; details: 48 h, 100 ppm in cattle blood, after 2 days
Experimental: Ctenocephalides felis—Oral Test
• Solvent: dimethyl sulfoxide
To produce a suitable preparation of active compound, 10 mg of active compound are dissolved in 0.5 mL solvent, and the concentrate is diluted with cattle blood to the desired concentration.
Approximately 20 adult unfed cat fleas (Ctenocephalides felts) are placed in flea chambers. The blood chamber, sealed with parafilm on the bottom, are filled with cattle blood supplied with compound solution and placed on the gauze covered top of the flea chamber, so that the fleas are able to suck the blood. The blood chamber is heated to 37° C. whereas the flea chamber is kept at room temperature.
After 2 days mortality in % is determined. 100% means all the fleas have been killed; 0% means none of the fleas have been killed.

[9] = system: southern root-knot nematode (Meloidogyne incognita); test: Meloidogyne incognita test; details: 20 ppm, after 14 days
Experimental: Meloidogyne incognita—Test
• Solvent: 125.0 parts by weight of acetone
To produce a suitable preparation of active compound, 1 part by weight of active compound is mixed with the stated amount of solvent, and the concentrate is diluted with water to the desired concentration. Vessels are filled with sand, a solution of the active ingredient, a suspension containing eggs and larvae of the southern root-knot nematode (Meloidogyne incognita) and salad seeds. The salad seeds germinate and the seedlings grow. Galls develop in the roots.
After 14 days the nematicidal activity is determined on the basis of the percentage of gall formation. 100% means no galls were found and 0% means the number of galls found on the roots of the treated plants was equal to that in untreated control plants.

[10] = system: adult flies Musca domestica strain WHO-N; test: Musca domestica test (MUSCDO surface treatment & contact assay); details: surface concentration 20 mg/m^2, 30 minutes exposure, 24 hours after contact, read-out: efficacy (mortality)
Experimental: Musca domestica Test (MUSCDO Surface Treatment & Contact Assay)
• Solvent: Aceton+2000 ppm rapeseed oil methyl ester (RME)
In order to produce a sufficient, active ingredient containing solution it is necessary to solve the test compound in the solvent-mix (acetone at 2 mg/ml/RME 2000 ppm). This solution is pipetted onto a glazed tile and after evaporation of the acetone, adult flies of the species Musca domestica strain WHO-N are placed onto the dried surface. The exposure time is 30 minutes.
Mortality in percent (%) is determined 24 hours after contact of the insects to the treated surface. 100% mortality means that all tested insects are dead, whereas 0% means that no insect died.

[11] = system: adult cat fleas (Ctenocephalides felis); test: Ctenocephalides felis in-vitro contact test, adult cat flea; details: 5 μg/cm^2 (=500 g/ha), after 48 hours, read-out: efficacy (fleas dead or moribund)
Experimental: Ctenocephalides felis—In-Vitro Contact Tests Adult Cat Flea
9 mg compound is solved in 1 mL acetone and diluted with acetone to the desired concentration. 250 μL of the test solution is filled in 25 mL glass test tubes and homogeneously distributed on the inner walls by rotation and tilting on a shaking device (2 h at 30 rpm). With a compound concentration of 900 ppm, an inner surface of 44.7 cm^2 and a homogeneous distribution, a dose of 5 μg/cm^2 is achieved.
After the solvent has evaporated, each test tube is filled with 5-10 adult cat fleas (Ctenocephalides felis), closed with a perforated lid and incubated in a lying position at room temperature and relative humidity. After 48 hours efficacy is determined. The fleas are patted on the ground of the tubes and are incubated on a heating plate at 45-50° C. for at most 5 minutes Immotile or uncoordinated moving fleas, which are not able to escape the heat by climbing upwards, are marked as dead or moribund.
An efficacy of 100% means all fleas are dead or moribund; 0% means no fleas are dead or moribund.

| Compound | pest or weed control at 4 µg/tick [1] [%] | pest or weed control at 20 µg/tick [1] [%] | mortality at 100 g/ha [3] [%] | pest or weed control at 32 µg/disc, 100 g/ha [2] [%] | mortality at 500 g/ha [3] [%] | mortality at 500 g/ha [4] [%] | mortality at 100 g/ha [6] [%] | pest or weed control at 5 µg/cm2, 5 µg/cm2 [7] [%] | nematicidal activity (gall formation) [9] [%] | further results |
| --- | --- | --- | --- | --- | --- | --- | --- | --- | --- | --- |
| Cc1cc(OC2CCCC2)cc(C(=O)N[C@@H](C)c2ncnn2-c2ccc(C#N)cn2)c1 [Example I-4, N-{(1S)-1-[1-(5-Cyanopyridin-2-yl)-1H-1,2,4-triazol-5-yl]ethyl}-3-(cyclopentyloxy)-5-methylbenzamide] | 100 | 100 | 100 |  |  |  |  |  |  | pest or weed control at 160 µg/disc, 500 g/ha [2]: 100%; mortality at 100 g/ha [4]: 100% |
| C[C@H](NC(=O)c1cc(OC(F)(F)F)cc(C(C)(C)C#N)c1)c1ncnn1-c1cc(C#N)ncn1 [Example I-66] |  |  |  | 100 | 100 | 100 | 100 |  |  | mortality at 100 g/ha [5]: 100% |
| C[C@H](NC(=O)c1cc(Br)cc(C(F)(F)c2ccc(F)cc2)c1)c1ncnn1-c1ccc(C#N)cn1 [Example I-25] | 100 |  |  |  |  |  | 100 | 100 | 90 | mortality at 100 ppm [8]: 90% |
| Cc1nc([C@H](C)NC(=O)c2cc(OC(F)(F)F)cc(C(C)(C)C#N)c2)n(-c2ncc(C#N)s2)n1 [Example I-51] |  |  |  | 100 | 100 | 100 | 100 |  |  |  |
| C[C@H](NC(=O)c1cc(Cl)cc(Oc2ccc(F)cc2)c1)c1ncnn1-c1ccc(C#N)cn1 [Example I-9] | 100 | 100 |  |  |  |  |  | 90 | 90 |  |
| CCN(C)C(=O)c1ccc(-n2nc(C)nc2[C@H](C)NC(=O)c2cc(Cl)cc(C(C)(C)C#N)c2)nc1 [Example I-52, 6-[5-[(1S)-1-[[3-chloro-5-(1-cyano-1-methyl-ethyl)benzoyl]amino]ethyl]-3-methyl-1,2,4-triazol-1-yl]-N-ethyl-N-methyl-pyridine-3-carboxamide] |  |  |  |  | 100 |  | 100 | 90 | 100 |  |
| C[C@H](NC(=O)c1cc(Cl)cc(C(C)(C)C#N)c1)c1nc(C2CC2)nn1-c1ccc(C#N)cn1 [Example I-38] |  |  | 90 | 100 | 100 | 100 | 100 |  |  | mortality at 20 mg/m2 [10]: 80 to 100% |
| Cc1cc(OC2COC2)cc(C(=O)N[C@@H](C)c2ncnn2-c2ccc(C#N)cn2)c1 [Example I-6, N-{(1S)-1-[1-(5-Cyanopyridin-2-yl)-1H-1,2,4-triazol-5-yl]ethyl}-3-methyl-5-(oxetan-3-yloxy)benzamide] | 100 | 100 | 100 |  |  |  |  | 90 |  | pest or weed control at 5 µg/cm2, 5 µg/cm2 [11]: 100%; mortality at 100 ppm [8]: 100%; pest or weed control at 160 µg/disc, 500 g/ha [2]: 100%; mortality at 100 g/ha [4]: 100%; mortality at 500 g/ha [6]: 100% |
